Test results published in PubChem BioAssay (NCI).
“And” between values parts separate entries of the source, which are not always exact repeats. Equal values may be shown once.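 Values below derive from 48-hour exposures of cells grown in 96-well plates, with endpoints linearly interpolated between the two concentrations bracketing the appropriate inhibition level. Abbreviation: GI50, concentration required for 50% inhibition of growth. TGI marks complete inhibition of growth.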

Test system: MDA-MB-468 breast
Experiment: inhibition of tumour cell growth, NCI panel, 48 h

**Q.** Which results are given for `COc1ccc(Cn2cc3c(c2-c2cc(OC)c(OC)c(OC)c2)CCc2cnoc2-3)cc1N`?
**A.** GI50: 0.0251 µM; TGI: 0.0735 µM

**Q.** For `CC(=O)Nc1ccc(NC(=O)Nc2cccc(-c3nc(-c4ccc(NC(=O)c5cccnc5)cc4Cl)no3)c2)cc1C(F)(F)F`, which GI50 is on record?
**A.** Its GI50 is 0.234 µM.

**Q.** And the TGI?
**A.** Its TGI is 0.758 µM.

**Q.** Which GI50 does the source give for `COc1cc(F)c(/C=C/c2cc(/C=C/c3cc(OC)c(OC)cc3F)n(-c3cc(F)cc(F)c3)n2)cc1OC` here?
**A.** The GI50 was 2.39 µM.

**Q.** And the TGI?
**A.** Its TGI is 5.72 µM.

**Q.** Which results are given for `NC(=O)c1ccccc1NC(=O)c1ccccc1Cl`?
**A.** GI50: > 100 µM; TGI: > 100 µM

**Q.** How did the GI50 turn out when `COc1cccc(C2SC(C)C(=O)N2CCc2cccs2)c1` (configuration not stated) was run?
**A.** Its GI50 is 2.25 µM.

**Q.** And the TGI?
**A.** The TGI was 7.32 µM.

**Q.** With `CCCCCCCCCCCCCCCCCCOc1ccccc1CC(=O)NCC[N+](C)(C)C` as the compound, how does the GI50 read?
**A.** Its GI50 is 2.47 µM.

**Q.** And the TGI?
**A.** The TGI was 6.28 µM.

**Q.** How did the GI50 turn out when `Cn1cnc2c(F)c(Nc3ccc(Br)cc3F)c(C(=O)NOCCO)cc21` was run?
**A.** The GI50 was 26.9 µM.

**Q.** What about the TGI of the same compound?
**A.** The TGI was over 83.4 µM.

**Q.** Which GI50 does the source give for `C[C@@H](COCCC(=O)N1CCN(c2ncc(C(F)(F)F)cn2)CC1)Nc1cn[nH]c(=O)c1C(F)(F)F` here?
**A.** The GI50 was 17.9 µM.

**Q.** And the TGI?
**A.** Its TGI is over 100 µM.

**Q.** What does the source list for `Cc1ccc(Nc2cc(C)nc(NCCCNc3ccnc4cc(Cl)ccc34)n2)cc1`?
**A.** GI50: 1.43 µM; TGI: 2.92 µM

**Q.** For `Nc1nccc2c1ncn2C1OC(CO)C(O)C1O` (configuration not stated), which GI50 is on record?
**A.** The GI50 was over 100 µM.

**Q.** What about the TGI of the same compound?
**A.** Its TGI is over 100 µM.

**Q.** What does the source list for `CCOc1nccc2c1nc(-c1nonc1N)n2CC`?
**A.** GI50: > 25 µM; TGI: > 25 µM

**Q.** Which GI50 does the source give for `Clc1ccc(CNc2nccc(-c3cnn4ncccc34)n2)cc1` here?
**A.** Its GI50 is 5.62 µM.

**Q.** What about the TGI of the same compound?
**A.** The TGI was 12.7 µM.

**Q.** What does the source list for `COC(=O)[C@]12CC[C@@H](C)[C@H](C)[C@@H]1C1=CC[C@@H]3[C@@]4(C)C(C=O)=C[C@@](C)(COS(C)(=O)=O)C4[C@H](O)C[C@@]3(C)[C@]1(C)CC2` (some centres not stated)?
**A.** GI50: 2.08 µM; TGI: 4.1 µM

**Q.** `Cc1cc(N(CCCNc2ccnc3cc(Cl)ccc23)Cc2ccc3c(c2)OCO3)nc(N2CCCCC2)n1` was tested. Which GI50 did it give?
**A.** Its GI50 is 1.95 µM.

**Q.** And the TGI?
**A.** Its TGI is 4.67 µM.

**Q.** For `CCNNC(=O)[C@@H]1[C@H](c2cc(OC)c(OC)c(OC)c2)c2cc3c(cc2[C@H](O)[C@H]1CO)OCO3`, which GI50 is on record?
**A.** The GI50 was 0.281 µM.

**Q.** For `CC(C)C[C@H](NC(=O)CCn1ccc2ncccc2c1=O)B(O)O`, which GI50 is on record?
**A.** The GI50 was 2.35 µM.

**Q.** What about the TGI of the same compound?
**A.** Its TGI is 14.4 µM.

**Q.** For `Nc1ccc(C(OC(=O)c2cc3ccccc3c(Cc3c(O)c(C(=O)OC(c4ccc(N)cc4)(c4ccc(N)cc4)c4ccc(N)cc4)cc4ccccc34)c2O)(c2ccc(N)cc2)c2ccc(N)cc2)cc1`, which GI50 is on record?
**A.** The GI50 was 0.252 µM.

**Q.** And the TGI?
**A.** The TGI was 2.13 µM.

**Q.** Which results are given for `Cc1ncc(C(=O)Nc2ccc(CN3CCN(C)CC3)c(C(F)(F)F)c2)cc1C#Cc1c(N)ncc2ccccc12`?
**A.** GI50: 0.577 µM; TGI: 1.15 µM

**Q.** Which results are given for `CN1C[C@@H]2Cn3c(c(C4=C(c5cn(C)c6ccccc56)C(=O)NC4=O)c4ccccc43)C[C@H]2C1`?
**A.** GI50: 4.04 µM and 3.06 µM; TGI: 9.12 µM and 6.64 µM

**Q.** How did the GI50 turn out when `O=C(COc1cccc(/C=C2\Oc3ccc4ccccc4c3C2=O)c1)c1ccc(Cl)cc1` was run?
**A.** The GI50 was 9.62 µM.

**Q.** And the TGI?
**A.** The TGI was 43.3 µM.

**Q.** What does the source list for `CSc1ccc(SC2c3ccc(C)cc3Oc3nc(N)c(C#N)c(N)c32)cc1` (configuration not stated)?
**A.** GI50: 1.74 µM; TGI: 3.81 µM

**Q.** What does the source list for `N#C/C(=C\c1c(-c2ccccc2)[nH]c2ccccc12)C(=O)c1ccccc1`?
**A.** GI50: 5.56 µM; TGI: > 100 µM

**Q.** Which results are given for `CCN(CC)CCn1c2ccc(OC)cc2c2sc3cc(OC)ccc3c(=O)c21`?
**A.** GI50: 1.56 µM; TGI: 3.21 µM

**Q.** For `COc1ccc(-c2ccc(-c3ccc(C(=N)N)cn3)o2)cc1Cl`, which GI50 is on record?
**A.** Its GI50 is 1.84 µM.

**Q.** And the TGI?
**A.** The TGI was 3.51 µM.

**Q.** For `COc1cc(NC(=O)NCc2ccco2)ccc1-c1ccc(NC(=O)NCc2ccco2)cc1OC`, which GI50 is on record?
**A.** Its GI50 is 1.82 µM.

**Q.** And the TGI?
**A.** Its TGI is 4.61 µM.

**Q.** With `COc1c(Cl)ccc2c(-c3nc4cc(Cl)c(F)cc4s3)cc(=O)oc12` as the compound, how does the GI50 read?
**A.** Its GI50 is 4.89 µM.

**Q.** What about the TGI of the same compound?
**A.** The TGI was 34.4 µM.

**Q.** Which GI50 does the source give for `COC(=O)[C@H](C)NC(=O)[C@@H](OC)[C@@H]1Cc2cc3cc(OC4CC(OC5CC(O)C(O)C(C)O5)C(O)C(C)O4)c(C)c(O)c3c(O)c2C(=O)[C@H]1OC1CC(OC2CC(OC3CC(C)(O)C(O)C(C)O3)C(O)C(C)O2)C(O)C(C)O1` (some centres not stated) here?
**A.** The GI50 was 0.112 µM.

**Q.** What about the TGI of the same compound?
**A.** The TGI was 1.07 µM.

**Q.** Which results are given for `COc1ccc(-c2cc(-c3cccc(NS(C)(=O)=O)c3)nc(N)c2C#N)cc1`?
**A.** GI50: 1.35 µM; TGI: 6.64 µM

**Q.** `O=C(N/N=C/c1ccc(Cl)cc1Cl)c1ccc2nc(-c3ccc(Cl)cc3)[nH]c2c1` was tested. Which GI50 did it give?
**A.** Its GI50 is 1.64 µM.

**Q.** And the TGI?
**A.** The TGI was 3.23 µM.

**Q.** Which GI50 does the source give for `COc1cccc(CCC(=O)c2cc3c(N)c(C(=O)Nc4cccc(Cl)c4C)sc3nc2C)c1` here?
**A.** Its GI50 is 0.288 µM.

**Q.** What about the TGI of the same compound?
**A.** The TGI was 2.82 µM.

**Q.** `COc1cc(C2CC(=O)Nc3c2ccc2ccccc32)cc(Br)c1OC` (configuration not stated) was tested. Which GI50 did it give?
**A.** The GI50 was 0.285 µM.

**Q.** What about the TGI of the same compound?
**A.** The TGI was 0.969 µM.

**Q.** How did the GI50 turn out when `CC(C)C[C@H](NC(=O)[C@@H](NC(=O)c1cccc(-c2ccccc2)n1)[C@@H](C)O)B(O)O` was run?
**A.** Its GI50 is 0.00244 µM.

**Q.** And the TGI?
**A.** The TGI was 0.00685 µM.

**Q.** `Cc1cc(C)c(S(=O)(=O)N(CCc2cccc(Br)c2)Cc2ccc(-c3cccc(S(C)(=O)=O)c3)cc2)c(C)c1` was tested. Which GI50 did it give?
**A.** Its GI50 is over 100 µM.

**Q.** And the TGI?
**A.** The TGI was over 100 µM.

**Q.** With `CCOC(=O)C(=CN1CCNC1=S)C(=O)OCC` as the compound, how does the GI50 read?
**A.** Its GI50 is over 100 µM.

**Q.** What about the TGI of the same compound?
**A.** Its TGI is over 100 µM.
